This test has as its target T1, TRPM7/ChaK1 kinase domain (purified recombinant ChaK1-cat) (Mus musculus, UniProt Q923J1).
T1 construct: Expression and purification of recombinant ChaK1 kinase domain was performed as described; made in house; host or cells: bacteria
T1 sequence (Q923J1 1592-1822 limits assumed): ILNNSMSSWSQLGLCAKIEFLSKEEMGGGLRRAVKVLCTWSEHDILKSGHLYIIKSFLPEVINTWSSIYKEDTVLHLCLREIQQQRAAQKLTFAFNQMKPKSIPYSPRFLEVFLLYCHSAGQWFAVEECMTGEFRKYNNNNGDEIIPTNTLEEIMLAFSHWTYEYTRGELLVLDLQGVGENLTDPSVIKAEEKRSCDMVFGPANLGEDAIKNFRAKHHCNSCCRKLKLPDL
Description: ChaK1-cat kinase activity: phosphorylation of myelin basic protein with [γ-33P]ATP, SDS-PAGE and autoradiography. It counts as biochemical. On the procedure:
The reaction was performed using purified recombinant ChaK1-cat and myelin basic protein. The samples were analyzed by SDS-PAGE and autoradiography; and
The bands corresponding to phosphorylated myelin basic protein (on the autoradiogram shown in B) were quantified using the Kodak 1D imaging program.
Protein samples were incubated in phosphorylation mixture consisting of 50 mM HEPES-KOH (pH 7.4), 10 mM MgCl2, 4 mM MnCl2, 0.5 mM CaCl2 (unless stated otherwise), 100 μM ATP, and 2 μCi of [γ-^33P]ATP (specific activity of 3000 Ci/mmol) with 0.1 μg of purified recombinant ChaK1. In assays involving annexin 0.5 μg of annexin was used. The reactions were run at 30° C. for 5 min and were terminated by incubation in an ice/water bath and addition of Laemmli sample buffer. Samples were boiled for 5 min and analyzed by SDS-PAGE and autoradiography.
We analyzed the sensitivity of ChaK1 to some known inhibitors of conventional protein kinases.

The record followed here is US20090163578A1, “NOVEL MODIFICATION OF IMMUNOMODULATORY PROTEIN” (UNIVERSITY OF MEDICINE AND DENTISTRY OF NEW JERSEY, priority 2004, published 2009).

As to `CN[C@@H]1C[C@H]2O[C@@](C)([C@@H]1OC)n1c3ccccc3c3c4c(c5c6ccccc6n2c5c31)C(=O)NC4` [staurosporine], the “effect on the kinase activity of ChaK1” value (concentrations up to 0.1 mM (FIG. 6B)) is on record as “does not have any effect”. Also, for the setting “staurosporine even at the concentration of 100 μM (FIG. 6B)”, the “inhibitory effect on ChaK1” value is “did not produce any inhibitory effect”.

By IC50 is commonly meant the midpoint of a concentration-inhibition curve. Consider `CC(=O)c1c(O)c(C)c(O)c(Cc2c(O)c3c(c(C(=O)/C=C/c4ccccc4)c2O)OC(C)(C)C=C3)c1O` [rottlerin], for which the IC50 is roughly 35 µM.
